Measurements published in patent US5047228A, “Nonionic 5-C-substituted 2,4,6-triiodoisophthalic acid derivatives” (Schering Aktiengesellschaft, priority 1980, dated 1991).

Assays:
[1] = Iodine content; format: physicochemical
[2] = Distribution coefficient butanol/buffer pH 7.6; format: physicochemical
Description: The distribution coefficient of a compound permits ascertainment of its hydrophilicity and thus its compatibility; the lower the value of the distribution coefficient, the higher the compatibility of the compound tested.

[3] = LD50 rat (i.v.); settings: in vivo, iv, injection rate 2 ml/min, concentration 300 mg/ml, observation period 24 h
Method: (§1) *Injection rate 2 ml/min; concentration 300 mg/ml; observation period 24

[4] = Stability in heat sterilization; format: physicochemical
Description: The present invention comprises nonionic X-ray contrast media based on the opacifying compounds of this invention with novel basic structures. These novel opacifying compounds are distinguished by a number of advantages. They are derived from triiodinated aromatic basic components which themselves are hydrophilic and nontoxic. […] They are also distinguished by a high chemical stability, especially also under the conditions of heat sterilization.
Solutions of the compounds of this invention can thus also be sterilized in the usual way by heating to 120° C. at a physiological pH value. The solutions have a low osmotic pressure even at high iodine concentrations, compared with the state of the art ionic X-ray contrast media. This is especially a prerequisite for a good local compatibility.

[5] = LD50 mouse (i.v.); settings: in vivo, iv, injection rate 2 ml/min, concentration 300 mg/ml, observation period 24 h
Method: as §1

[6] = system: dog erythrocytes; assay: Erythrocyte damage (echinocyte formation in dog erythrocytes); format: cell-based; settings: effect of metrizamide set at 10 as a standard, smaller number = higher compatibility
Method: The deformation of erythrocytes (erythrocyte damage) due to X-ray contrast media can be taken as a measure for the membrane-damaging effect of the compound. In this instance, the formation of echinocytes was measured in dog erythrocytes, setting the effect of metrizamide at 10 as a standard. A smaller number signifies a correspondingly higher compatibility.

| Compound | Iodine Content [1] [%] | Distribution Coefficient Butanol/Buffer pH 7.6 [2] | LD50 at 24 h [3] [mg/kg] | Stable in Heat Sterilization [4] | LD50 at 24 h [5] [mg/kg] | Erythrocyte Damage [6] |
| --- | --- | --- | --- | --- | --- | --- |
| CC(=O)Nc1c(I)c(C(=O)N[C@H]2C(O)O[C@H](CO)[C@@H](O)[C@@H]2O)c(I)c(N(C)C(C)=O)c1I (stereo partly drawn) [A, reference compound] | 48 | 0.259 | 11000 | No | 12000 | 10 |
| CN(CC(O)C(O)C(O)C(O)CO)C(=O)c1c(I)c(C(=O)N(C)CC(O)C(O)C(O)C(O)CO)c(I)c(C(=O)N(C)CC(O)C(O)C(O)C(O)CO)c1I (stereo not drawn) [E, 2,4,6-triiodobenzene-1,3,5-tricarboxylic acid tris(2,3,4,5,6-pentahydroxyhexyl-N-methyl)triamide] | 34 | < 0.001 | – | Yes | – | < 0.3 |
| O=C(c1c(I)c(C(=O)N(CCO)CCO)c(I)c(C(=O)N(CCO)CCO)c1I)N(CCO)CCO [C, 2,4,6-triiodobenzene-1,3,5-tricarboxylic acid tris(bis-2-hydroxyethyl)triamide] | 45 | 0.131 | 12000 | Yes | – | 1.8 |
| CN(CC(O)CO)C(=O)c1c(I)c(C(=O)N(C)CC(O)CO)c(I)c(C(=O)N(C)CC(O)CO)c1I (stereo not drawn) [B, 2,4,6-triiodobenzene-1,3,5-tricarboxylic acid tris(2,3-dihydroxypropyl-N-methyl)triamide] | 45 | 0.064 | 11000 | Yes | 16000 | 2.1 |
| CNC(=O)c1c(I)c(C(=O)NC(CO)C(O)CO)c(I)c(C(=O)NC(CO)C(O)CO)c1I (stereo not drawn) [G, 5-N-methylcarbamoyl-2,4,6-triiodoisophthalic acid bis(2,3-dihydroxy-1-hydroxymethylpropyl)diamide] | 47 | 0.065 | 19000 | Yes | – | 2.8 |
| CN(C)C(=O)c1c(I)c(C(=O)NCC(O)CO)c(I)c(C(=O)NCC(O)CO)c1I (stereo not drawn) [F, 2,4,6-triiodobenzene-1,3,5-tricarboxylic acid [(N,N-dimethyl)-bis(2,3-dihydroxypropyl)]-triamide] | 50 | 0.171 | 11000 | Yes | 14000 | 2.7 |
| CN(CC(O)CO)C(=O)c1c(I)c(C(N)=O)c(I)c(C(=O)N(C)CC(O)CO)c1I (stereo not drawn) [D, 2,4,6-triiodobenzene-1,3,5-tricarboxylic acid bis(2,3-dihydroxypropyl-N-methyl)triamide] | 50 | 0.074 | – | Yes | – | 4.2 |
